Source: publication PMC4023971, “Targeting Prolyl Endopeptidase with Valproic Acid as a Potential Modulator of Neutrophilic Inflammation” (PLoS ONE, 2014)

Molecular target: T1, prolyl endopeptidase (PE, rhPE) (Homo sapiens, UniProt P48147)
T1 construct: gene PREP; recombinant human PE expressed in E. coli from plasmid pTrcHis PE
T1 sequence (P48147 1-710): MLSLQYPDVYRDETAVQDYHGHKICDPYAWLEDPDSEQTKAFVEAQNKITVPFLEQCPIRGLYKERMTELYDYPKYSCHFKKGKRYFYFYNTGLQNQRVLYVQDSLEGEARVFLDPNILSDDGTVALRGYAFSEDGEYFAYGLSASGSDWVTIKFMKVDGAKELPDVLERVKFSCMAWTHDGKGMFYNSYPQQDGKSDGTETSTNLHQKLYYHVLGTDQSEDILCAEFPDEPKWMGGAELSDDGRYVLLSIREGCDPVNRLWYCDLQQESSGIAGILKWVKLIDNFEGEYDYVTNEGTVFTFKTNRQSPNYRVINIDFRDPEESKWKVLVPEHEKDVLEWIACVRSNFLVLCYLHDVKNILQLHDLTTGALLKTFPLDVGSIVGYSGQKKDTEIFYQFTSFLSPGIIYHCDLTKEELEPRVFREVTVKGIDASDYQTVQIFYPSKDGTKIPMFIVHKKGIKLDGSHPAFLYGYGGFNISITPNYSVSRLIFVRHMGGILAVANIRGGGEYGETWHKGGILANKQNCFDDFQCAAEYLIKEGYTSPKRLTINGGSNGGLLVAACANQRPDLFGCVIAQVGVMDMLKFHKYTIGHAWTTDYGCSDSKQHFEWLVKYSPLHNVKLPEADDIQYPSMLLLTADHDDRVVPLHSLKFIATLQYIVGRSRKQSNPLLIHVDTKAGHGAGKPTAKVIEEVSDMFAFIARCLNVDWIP
Assay: purified rhPE activity assay (Suc-Gly-Pro-AMC fluorescence / Suc-Gly-Pro-pNA UV-vis, Lineweaver-Burk); supported by CD and NMR competition with ZPP
Type: biochemical

## CCCC(CCC)C(=O)O [VPA, Valproic acid]
  Ki: 1 to 2 mM
